In patent US20210330611A1, “THERAPY FOR NEUROLOGICAL DISEASES/DISORDERS” (priority 2020, published 2021):
Structures can show the parent of a compound that is named as a salt. Where two headings read alike, the source gives them in different places.

What was measured:
[1] = system: fibrin-induced microglia activation; experiment: Image-based assay of fibrin-induced microglia activation (HTS and dose response); assay type: cell-based, rat; conditions: for inhibition at 10 µM: Rattus norvegicus, Microglia, read-out: Fibrin % inhibition; for inhibition at 10 µM / Fibrin % inhibition: primary microglia HTS, fibrin stimulation
[2] = system: LPS-induced microglia activation; experiment: Image-based assay of LPS-induced microglia activation (HTS and dose response); assay type: cell-based, rat; conditions: for inhibition at 10 µM: Rattus norvegicus, Microglia, read-out: LPS % inhibition; for inhibition at 10 µM / LPS % inhibition: primary microglia HTS, LPS stimulation
primary rat microglia [3] = experiment: Cell toxicity (dead cells, size <150 μm2) in LPS assay; conditions: for LPS % cell toxicity: primary microglia HTS, LPS stimulation
[4] = system: fibrin- and LPS-induced microglia activation; experiment: cells; assay type: cell-based, rat
primary rat microglia [5] = experiment: Cell toxicity (dead cells, size <150 μm2) in coated fibrin (cFib) assay; conditions: for Fibrin % cell toxicity: primary microglia HTS, fibrin stimulation;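 on Fibrin % cell toxicity: share of dead cells sized under 150 µm2 at 10 µM in fibrin-stimulated microglia HTS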
[6] = activation = cell size >800 μm2
[7] = 48 h, activation = cell size >800 μm2
[8] = quadrant by fibrin and LPS inhibition in HTS of 1907 compounds
[9] = increased cell size (>800 μm^2) as marker of activation
[10] = 48 h, increased cell size (>800 μm^2) as marker of activation
[11] = decreased size (<150 μm^2) as marker of toxicity

SMILES | inhibition at 10 µM [1, 6] [%] | inhibition at 10 µM [2, 7] [%] | LPS % cell toxicity (primary rat microglia [3]; toxicity = cell size <150 μm2) [%] | Quadrant (FIG. 5b) [4, 8] | Fibrin % cell toxicity (primary rat microglia [5]; toxicity = cell size <150 μm2) [%] | further results
CCN(CCO)CCCC(C)Nc1ccnc2cc(Cl)ccc12 (stereo not drawn) [Hydroxychloroquine] | 35 | 17 | 0 | Q4 | 1 | –
CCCCCC(=O)O[C@]1(C(C)=O)CC[C@H]2[C@@H]3CCC4=CC(=O)CC[C@]4(C)[C@H]3CC[C@@]21C [Hydroxyprogesterone Caproate] | 22 | 25 | 0 | Q4 | 1 | –
CC/C=C\C/C=C\C/C=C\C/C=C\C/C=C\CCCC(=O)OCC [Icosapent ethyl] | -13 | 1 | 0 | Q4 | 0 | –
O=C1C2CC3CC1CC(O)(C3)C2 [Idramantone] | -7 | 8 | 0 | Q4 | 1 | –
CC#CCC(C)[C@H](O)/C=C/[C@@H]1[C@H]2C/C(=C/CCCC(=O)O)C[C@H]2C[C@H]1O (stereo partly drawn) [Iloprost] | 23 | -1 | 0 | Q4 | 1 | –
N=C1NC(=O)N2CC12 (stereo not drawn) [Imexon] | -3 | 12 | 1 | Q4 | 1 | –
CC1Cc2ccccc2N1NC(=O)c1ccc(Cl)c(S(N)(=O)=O)c1 (stereo not drawn) [Indapamide] | -14 | 11 | 0 | Q4 | 0 | –
CC(C(=O)O)c1ccc(N2Cc3ccccc3C2=O)cc1 (stereo not drawn) [Indoprofen] | -34 | 18 | 0 | Q4 | 1 | –
O[C@H]1[C@H](O)[C@@H](O)[C@H](O)[C@@H](O)[C@H]1O [Inositol] | -21 | 11 | 0 | Q4 | 0 | –
CC(=O)NCc1c(I)c(NC(C)=O)c(I)c(C(=O)O)c1I [Iodamide] | – | – | – | Q1 | – | inhibition at 10 µM [1, 9]: 41%; inhibition at 10 µM [2, 10]: 67%; LPS % cell toxicity (primary rat microglia [3]; [11]): 1%; Fibrin % cell toxicity (primary rat microglia [5]; [11]): 0%
CC(=O)N(CC(O)CN(C(C)=O)c1c(I)c(C(=O)NCC(O)CO)c(I)c(C(=O)NCC(O)CO)c1I)c1c(I)c(C(=O)NCC(O)CO)c(I)c(C(=O)NCC(O)CO)c1I (stereo not drawn) [Iodixanol] | -15 | 10 | 0 | Q4 | 0 | –
C[C@H](O)C(=O)Nc1c(I)c(C(=O)NC(CO)CO)c(I)c(C(=O)NC(CO)CO)c1I [Iopamidol] | -14 | -4 | 0 | Q4 | 1 | –
CCC(Cc1c(I)cc(I)c(N)c1I)C(=O)O (stereo not drawn) [Iopanic acid, reference compound] | – | – | – | Q3 | – | Fibrin Selectivity [1]: 4; Fibrin Selectivity (LOG10) [1]: 0.58; IC50 ([1]; Table 1, dose response 0.001-20 μM, triplicates, primary rat microglia, 48 h, read-out: Fibrin IC50): 5 µM; IC50 ([1]; Table 3, read-out: Fibrin IC50 (uM) (Suppl. Table 7)): 5 µM; IC50 ([1]; dose response, fibrin-induced microglia activation, read-out: Fibrin IC50): 5 µM; Fibrin % inhibition [1, 9]: 51%; IC50 ([2]; Table 1, dose response 0.001-20 μM, triplicates, primary rat microglia, 48 h, read-out: LPS IC50): > 20 µM; IC50 ([2]; Table 3, read-out: LPS IC50 (uM) (Suppl. Table 7)): > 20 µM; IC50 ([2]; dose response, LPS-induced microglia activation, read-out: LPS IC50): > 20 µM; LPS % inhibition [2, 9]: 35%; LPS % cell toxicity (primary rat microglia [3]; [11]): 0%; IC50 (primary rat microglia [3]; read-out: Cell Toxicity IC50 (uM) [LPS assay], Table 3): > 20 µM; Hit ([4]; HTS hit classification): HIT (Hits were defined as molecules that exhibited greater than 50% inhibition of either fibrin or LPS activation); Quadrant (FIG. 5b) ([4]; Table 1, screen at 10 μM): Q3; Cherry-picked Hit (Suppl. Table 7) ([4]; Table 3): HIT (Hits were defined as molecules that exhibited greater than 50% inhibition of either fibrin or LPS activation); Quadrant (FIG. 5b) ([4]; Table 3, screen at 10 μM): Q3; Fibrin % cell toxicity (primary rat microglia [5]; [11]): 1%; IC50 (primary rat microglia [5]; read-out: Cell Toxicity IC50 (uM) [cFib assay], Table 3): > 20 µM
CNC(=O)c1c(I)c(NC(C)=O)c(I)c(C(=O)O)c1I [Iothalamic Acid] | 5 | 7 | 0 | Q4 | 1 | –
CC(=O)N(CC(O)CO)c1c(I)c(C(=O)NCCO)c(I)c(C(=O)NCC(O)CO)c1I (stereo not drawn) [Ioxilan] | 7 | 8 | 0 | Q4 | 0 | –
CC(C)Oc1ccc2c(=O)c(-c3ccccc3)coc2c1 [Ipriflavone] | -29 | 7 | 0 | Q4 | 1 | –

SMILES | inhibition at 10 µM [1, 6] [%] | inhibition at 10 µM [2, 7] [%] | LPS % cell toxicity (primary rat microglia [3]; toxicity = cell size <150 μm2) [%] | Quadrant (FIG. 5b) [4, 8] | Fibrin % cell toxicity (primary rat microglia [5]; toxicity = cell size <150 μm2) [%] | further results
CC(C)CCCC(C)NC(C)C (stereo not drawn) [Iproheptine] | -34 | 11 | 0 | Q4 | 1 | –
Nc1nc(N)nc(-c2cc(Cl)ccc2Cl)n1 [Irsogladine Maleate] | -27 | 14 | 0 | Q4 | 1 | –
CC(C)Nc1ncccn1 [Isaxonine] | -46 | -1 | 0 | Q4 | 0 | –
CC(C)COC(=O)c1ccc(N)cc1 [Isobutamben] | -5 | -1 | 0 | Q4 | 1 | –
CCC(NC(C)C)C(O)c1ccc(O)c(O)c1 (stereo not drawn) [Isoetarine] | 21 | 23 | 0 | Q4 | 1 | –
CC(=O)OCC(=O)[C@@]1(O)CC[C@H]2[C@@H]3CCC4=CC(=O)C=C[C@]4(C)[C@@]3(F)[C@@H](O)C[C@@]21C [Isoflupredone Acetate] | – | – | – | Q2 | – | inhibition at 10 µM [1, 9]: 106%; inhibition at 10 µM [2, 10]: 90%; LPS % cell toxicity (primary rat microglia [3]; [11]): 2%; Fibrin % cell toxicity (primary rat microglia [5]; [11]): 3%
NNC(=O)c1ccncc1 [Isoniazid] | -29 | 19 | 0 | Q4 | 1 | –
CC(C)[N+](C)(CCC(C(N)=O)(c1ccccc1)c1ccccc1)C(C)C [Isopropamide] | 19 | 24 | 0 | Q4 | 0 | –
O=[N+]([O-])O[C@@H]1CO[C@H]2[C@@H]1OC[C@@H]2O [Isosorbide Mononitrate] | -17 | 15 | 1 | Q4 | 0 | –
CC(C)CC(N)=O [Isovaleramide] | -10 | 1 | 0 | Q4 | 1 | –
CC(COc1ccccc1)NC(C)C(O)c1ccc(O)cc1 (stereo not drawn) [Isoxsuprine Hydrochloride] | -13 | 23 | 0 | Q4 | 0 | –
COC(=O)C1=C(C)NC(C)=C(C(=O)OC(C)C)C1c1cccc2nonc12 (stereo not drawn) [Isradipine] | 9 | 2 | 0 | Q4 | 1 | –
COc1ccc(C(=O)NCc2ccc(OCCN(C)C)cc2)cc1OC [Itopride, Itopride Hydrochloride] | – | – | 0 | Q4 | 0 | Fibrin % inhibition [1, 6]: −49%; LPS % inhibition [2, 6]: 25%
C=C(C)[C@H]1CN[C@H](C(=O)O)[C@H]1CC(=O)O [Kainic Acid] | -77 | 14 | 0 | Q4 | 0 | –
CNC1(c2ccccc2Cl)CCCCC1=O (stereo not drawn) [Ketamine] | -86 | -2 | 0 | Q4 | 1 | –
O=C(c1ccc(F)cc1)C1CCN(CCn2c(=O)[nH]c3ccccc3c2=O)CC1 [Ketanserin Tartrate] | 17 | 15 | 0 | Q4 | 1 | –
